The results in this text go back to patent US6831078B1, “Azetidinecarboxamide derivatives for treating CNS disorders” (Vernalis Research Limited, priority 1998, dated 2004).

Structures can show the parent of a compound that is named as a salt. Marks after values point to notes of the source that are not given here.

One data set concerns 3-MPA-Induced Seizures. As to the kind of experiment: Antagonism of 3-MPA-induced seizures. The format is in vivo. The note with it: mg/kg i.v. of 3-MPA required to evoke a seizure response; test drug 30 mg/kg p.o. 60 min before 3-MPA; male T/O mice. The protocol: Several animal seizure models are available for the screening and characterisation of anticonvulsant (antiepileptic) drugs, Most models employ a chemical convulsant to induce seizures and the anticonvulsant potencies of novel compounds are measured in terms of their ability to increase the dose of convulsant required to induce a seizure response (or to prolong the latency to seizure onset following a bolus dose of the convulsant). Most chemical convulsants work by blocking the neurotran […] function of gamma-aminobutyric acid (GABA), the predominant inhibitory neurotransmitter in the mammalian brain. This can be achieved by blocking the postsynaptic action of GABA using pentylenetetrazol or bicuculline, or via a presynaptic action using a GABA synthesis inhibitor to decrease GABA release into the synapse. […] Male albino […] (obtained from Tuck) weighing 28-40 g were used in these studies. […] Immediately following 3-MPA administration, each mouse was placed individually into a cage for observation. The seizure response of each animal was scored quantally as present or absent (response or non-response) during the 5 min period immediately following 3-MPA administration. A seizure response was defined as the onset of the initial clonic phase of the seizure (abrupt loss of righting reflex accompanied by vocalisation). The seizure threshold (in terms of mg/kg i.v. of 3-MPA required to evoke a seizure response) was determined in each treatment group by a sequential up/down method followed by modified probit analysis of the quantal data. […] In these studies, 3-MPA was obtained from Sigma. […] Drugs were administered in a dose volume of 10 ml/kg body weight.
For the compound `C=CCNC(=O)N1CC(c2ccc(Cl)cc2)C1` [Example 1], the “SC = Seizure threshold after treatment with test drug” value (from here on “SC = Seizure threshold”) is reported as 42.7 mg/kg.
As to `C=CCNC(=O)N1CC(c2ccc(C(C)(C)C)cc2)C1` [Example 2, 3-(4-tert-Butylphenyl)-N-(2-propenyl)azeddine-1-carboxamide], the “SC = Seizure threshold” value worked out at 24.2 mg/kg.
Same read-out and setting: next, `C#CCNC(=O)N1CC(c2ccc(C(C)(C)C)cc2)C1` [Example 3, 3-(4-tert-Butylphenyl)-N-(2-propynyl)azetidine-1-carboxamide]: 21.4 mg/kg; `C[C@@H](O)CNC(=O)N1CC(c2ccc(C(C)(C)C)cc2)C1` [Example 4, (R)-3-(4-tert-Butylphenyl)-N-(2-hydroxypropyl)azetidine-1-carboxamide]: 27.3 mg/kg.
On to `C=CCNC(=O)N1CC(c2ccc(F)cc2)C1` [Example 5, 3-(4-Fluoropbenyl)-N-(2-propenyl)azetidine-1-carboxamide], for which the “SC = Seizure threshold” value worked out at 32.4 mg/kg.
On to `C#CCNC(=O)N1CC(c2ccc(Cl)cc2)C1` [Example 8, (3-(4-Chlorophenyl)-N-2-propynyl)azetidine-1-carboxamide], for which the “SC = Seizure threshold” value is 100 mg/kg.
The same measure, in the same setting: to `C[C@@H](O)CNC(=O)N1CC(c2ccc(Cl)cc2)C1` [Example 9, (R)-3-(4-Chlorophenyl)-N-(2-hydroxypropyl)azetidine-1-carboxiamide] belongs 29.7 mg/kg; to `C[C@H](O)CNC(=O)N1CC(c2ccc(F)cc2)C1` [Example 10], 95.8 mg/kg.
Still for that read-out and setting: to `C[C@H](O)CNC(=O)N1CC(c2ccc(C(F)(F)F)cc2)C1` [Example 15] belongs 58.4 mg/kg; to `C#CCNC(=O)N1CC(c2cccc(C(F)(F)F)c2)C1` [Example 19, 3-(3-(Trifluoromethyl)phenyl)-N-(2-propynyl)azetidine-1-carboxamide], >200.0^a mg/kg.

System in another data set: not given
Assay: not given
Conditions: not given
Compound `CC(C)(N)CNC(=O)N1CC(c2ccc(Cl)cc2)C1` (as salt: HCl) [Example 79] had a melting point of 183 to 184 °C.
On the same count and under the same terms, to `CC[C@@H](O)CNC(=O)N1CC(c2ccc(F)cc2)C1` (hydrate or solvate) [Example 75] belongs 77 to 79 °C.
`C#CCNC(=O)N1CC(c2ccc(C(C)(C)C)cc2)C1` [Example 3, 3-(4-tert-Butylphenyl)-N-(2-propynyl)azetidine-1-carboxamide] had a melting point of 141 °C.
The same measure, in the same setting: to `C[C@@H](O)CNC(=O)N1CC(c2ccc(F)c(F)c2)C1` [Example 21] belongs 108 to 109 °C; to `C[C@@H](O)CNC(=O)N1CC(c2ccc(F)c(Cl)c2)C1` [Example 23], 83 to 84 °C; to `C#CCNC(=O)N1CC(c2ccc(F)c(F)c2)C1` [Example 25], 123 °C.
With `C#CCNC(=O)N1CC(c2ccc(F)c(Cl)c2)C1` [Example 26], the melting point amounted to 133 °C.
Compound `C[C@@H](O)CNC(=O)N1CC(c2ccc(F)c(C(F)(F)F)c2)C1` [Example 27] registered a melting point of 69 to 71 °C.
`C#CCNC(=O)N1CC(c2ccc(F)c(C(F)(F)F)c2)C1` [Example 28]: the melting point turned out to be 119 °C.
As to `CC(C)(O)CNC(=O)N1CC(c2cccc(Cl)c2)C1` [Example 29], the melting point is 102 °C.
The compound `C#CCNC(=O)N1CC(c2ccc(Cl)c(F)c2)C1` [Example 31] displayed a melting point of 132 °C.
On to `C[C@@H](O)CNC(=O)N1CC(c2ccccc2C(F)(F)F)C1` [Example 32], for which the melting point was determined as 89 °C.
For the compound `C#CCNC(=O)N1CC(c2ccccc2C(F)(F)F)C1` [Example 33], the melting point came to 101 °C.
Same read-out and setting: to `C[C@@H](O)CNC(=O)N1CC(c2ccccc2Cl)C1` [Example 34] belongs 109 °C; to `C[C@@H](O)CNC(=O)N1CC(c2cccc(Cl)c2Cl)C1` [Example 35], 111 °C; to `C[C@@H](O)CNC(=O)N1CC(c2ccc(F)cc2F)C1` [Example 36], 88 to 89 °C.
Still for that read-out and setting: next, `NC(=O)N1CC(c2cccc(C(F)(F)F)c2)C1` [Example 37]: 198 °C; `COCC(C)NC(=O)N1CC(c2ccc(Cl)cc2)C1` (stereo not drawn) [Example 38]: 110 °C; `C[C@H](CO)NC(=O)N1CC(c2ccc(Cl)cc2)C1` [Example 39]: 71 to 75 °C.
Take `C[C@H](CO)NC(=O)N1CC(c2ccc(Cl)cc2)C1` [Example 40]: the melting point is 82 to 85 °C.
On the same count and under the same terms, to `CC(C)(CO)NC(=O)N1CC(c2ccc(Cl)cc2)C1` [Example 41] belongs 134 to 135 °C.
The same measure, in the same setting: next, `C[C@H](NC(=O)N1CC(c2ccc(Cl)cc2)C1)[C@H](O)c1ccccc1` [Example 42]: 120 to 122 °C; `O=C(NCCc1ccccn1)N1CC(c2ccc(Cl)cc2)C1` [Example 43]: 125 °C; `NCC1CCN(C(=O)N2CC(c3ccc(Cl)cc3)C2)CC1` [Example 44]: 137 to 138 °C.
In turn, `CCCNC(=O)N1CC(c2ccc(F)cc2)C1` [Example 45] gave a melting point of 117 to 118.5 °C.
Regarding `C=CCNC(=O)N1CC(c2ccc(C(F)(F)F)cc2)C1` [Example 46], the melting point fell in the range of 136 to 137.5 °C.
In turn, `CCCNC(=O)N1CC(c2ccc(C(F)(F)F)cc2)C1` [Example 47] yielded a melting point of 127 to 128.5 °C.
Still for that read-out and setting: to `C[C@H](O)CNC(=O)N1CC(c2cccc(F)c2)C1` [Example 48] belongs 79.5 to 80 °C.
Compound `C[C@H](O)CNC(=O)N1CC(c2cc(Cl)cc(Cl)c2)C1` [Example 49] yielded a melting point of 110 to 111 °C.
The same measure, in the same setting: next, `C[C@H](O)CNC(=O)N1CC(c2cccc(Cl)c2)C1` [Example 51]: 78 to 80 °C; `C=CCNC(=O)N1CC(c2cccc(C(F)(F)F)c2)C1` [Example 52]: 64 to 66 °C.
The same measure, in the same setting: next, `C=CCNC(=O)N1CC(c2cccc(Cl)c2)C1` [Example 53]: 65 to 66 °C.
`C=CCNC(=O)N1CC(c2cccc(F)c2)C1` [Example 54] came in with a melting point of 62.5 to 63.5 °C.
Regarding `CC(C)(O)CNC(=O)N1CC(c2ccc(F)cc2)C1` [Example 55], the melting point is 77 to 78.5 °C.
As for `CC(C)(O)CNC(=O)N1CC(c2cccc(C(F)(F)F)c2)C1` [Example 56], the melting point lay within 94.5 to 96 °C.
On to `O=C(NCCO)N1CC(c2ccc(F)cc2)C1` [Example 57], for which the melting point was 99 to 101 °C.
`C[C@@H](O)CNC(=O)N1CC(c2ccc(C(F)(F)F)cc2F)C1` [Example 58] showed a melting point of 106 to 107 °C.
Same read-out and setting: to `C#CCNC(=O)N1CC(c2cccc(Cl)c2)C1` [Example 59] belongs 90 to 105 °C (dec.); to `C#CCNC(=O)N1CC(c2cc(F)cc(Cl)c2)C1` [Example 61], 108.5 to 110 °C.
Same read-out and setting: to `C[C@@H](O)CNC(=O)N1CC(c2ccc3ccccc3c2)C1` [Example 63] belongs 143 to 144 °C.
The same measure, in the same setting: next, `CC(C)(O)CNC(=O)N1CC(c2ccc(F)c(C(F)(F)F)c2)C1` [Example 64]: 110 to 111.5 °C.
In the case of `O=C(NCCCO)N1CC(c2ccc(F)cc2)C1` [Example 65], the melting point lay within 90 to 93 °C.
On the same count and under the same terms, to `CC(C)(O)CNC(=O)N1CC(c2ccc(Cl)cc2)C1` [Example 66] belongs 114 to 115.5 °C.
In turn, `NC(=O)N1CC(c2ccc(F)cc2)C1` [Example 67] showed a melting point of 205 to 208.5 °C.
Still for that read-out and setting: to `CC(C)(O)CNC(=O)N1CC(c2cc(F)cc(Cl)c2)C1` [Example 68] belongs 112.5 to 113.5 °C.
The same measure, in the same setting: to `NC(=O)N1CC(c2cc(F)cc(Cl)c2)C1` [Example 69] belongs 198 to 200.5 °C; to `C[C@@H](O)CNC(=O)N1CC(c2cc(F)cc(Cl)c2)C1` [Example 70], 81 to 82.5 °C.
The same measure, in the same setting: next, `CC(O)CNC(=O)N1CC(c2ccc(Cl)cc2)C1` (stereo not drawn) [Example 71]: 92.5 to 94 °C; `C#CCNC(=O)N1CC(c2cccc(F)c2)C1` [Example 72]: 101.5 to 110.25 °C.
The compound `CCC(C)NC(=O)N1CC(c2ccc(F)cc2)C1` (stereo not drawn) [Example 74] had a melting point of 100 to 102 °C.
On the same count and under the same terms, to `O=C(N[C@@H]1CCCC[C@H]1O)N1CC(c2ccc(F)cc2)C1` [Example 76] belongs 141 to 142.5 °C.
For `C[C@@H](CO)NC(=O)N1CC(c2ccc(F)cc2)C1` [Example 77], the melting point fell in the range of 118 to 120 °C.
`O=C(NC[C@H](O)CO)N1CC(c2ccc(Cl)cc2)C1` [Example 78] displayed a melting point of 90 to 92 °C.
Same read-out and setting: next, `CC(=O)CNC(=O)N1CC(c2ccc(C(F)(F)F)cc2)C1` [Example 80]: 139.5 to 141 °C.
Same read-out and setting: next, `C[C@@H](O)CNC(=O)N1CC(c2cccc(F)c2)C1` [Example 83]: 77.5 to 79 °C; `CC(C)(O)CNC(=O)N1CC(c2ccc(C(F)(F)F)cc2)C1` [Example 84]: 123 to 124 °C.
